Legend:
[1] = Heavy metal removal ability test in contaminated soil (ICP-MS), arsenic; conditions: for Arsenic (As) Adsorption amount: contaminated soil; for Arsenic (As) Adsorption rate: relative to EDTA control
Experimental: (§1) (1) Preparation of Soil Contaminated with Heavy Metal
(§2) After collecting and pulverizing uncontaminated soil, fine particles obtained by using a mesh were mixed with the aqueous heavy metal solution to prepare soil samples contaminated with heavy metals.
(§3) Each 3 ml of the prepared aqueous solution was added to a soil sample contaminated with heavy metals and mixed for 5 minutes.
(§4) 50 ml of distilled water was added to the contaminated soil mixed with the aqueous solution for restoring soil, stirred for 20 minutes, and settled for 1 hour, and a supernatant was prepared as a sample solution.
(§5) The prepared sample solution was analyzed for the heavy metal component using an Inductively Coupled Plasma Mass Spectrometer (ICP-MS) (Xseries™ 2, Thermo Fisher Scientific, UK).
(§6) Adsorption rate of heavy metals (%)=(Adsorption amount of Embodiment/Adsorption amount of Control)×100 Equation 1

[2] = Heavy metal removal ability test in contaminated soil (ICP-MS), cadmium; conditions: for Cadmium (Cd) Adsorption amount: contaminated soil; for Cadmium (Cd) Adsorption rate: relative to EDTA control
Experimental: as §1, §2, §3, §4, §5, §6

[3] = Heavy metal removal ability test in contaminated soil (ICP-MS), nickel; conditions: for Nickel (Ni) Adsorption amount: contaminated soil; for Nickel (Ni) Adsorption rate: relative to EDTA control
Experimental: as §1, §2, §3, §4, §5, §6

[4] = Heavy metal removal ability test in contaminated soil around a factory (WAK-Me test kit); conditions: 1.0 wt % aqueous solution, colour comparison test kit
Experimental: The contaminated soil around the factory in the industrial complex was collected, pulverized, and meshed to prepare fine particles of soil samples.
Each 3 ml of aqueous solutions for restoring soil was added to soil samples and mixed for 5 minutes.

[5] = system: human skin; experiment: Skin irritation test of active ingredient (patch method, CTFA guidelines); format: in vivo; conditions: 24 h patch; for Test result (number of subject) (+) / Test result (number of subject) (++) / Test result (number of subject) (±) / Test result (number of subject) (−): 20 people; for Test result (number of subject) (+): (+) apparent reddening; for Test result (number of subject) (++): (++) more reddened and swollen; for Test result (number of subject) (±): (±) slightly reddish; for Test result (number of subject) (−): (−) no erythema
Experimental: A filter paper disk was placed in an 8 mm diameter, 10 panels of pin chamber.
After 24 hours, the pin chamber was removed, and skin conditions were visually observed. The degree and grade for skin irritation were calculated according to the following Equation 2, and the results are shown in Table 4 below.
[Criteria for Skin Irritation]
(−): No erythema or particularly no symptoms; (±): slightly reddish than the periphery; (+): Apparent reddening than periphery; (++): More reddened and swollen than periphery.
[Grade for Skin Irritation]
Degree of irritation 0-0.1: Grade I (unstimulated);
Degree of irritation 0.11-0.3: Grade II (weakly stimulated);
Degree of irritation 0.31-0.5: Grade III (moderately stimulated);
Degree of irritation 0.51 or more: Grade IV (strongly stimulated)

[6] = Formaldehyde (formalin) removing ability test (GC); conditions: 2.0% formaldehyde solution, 3 molar equivalents of compound, room temperature; for Formaldehyde GC Area, 30 min: after 30 min; for Formaldehyde GC Area, 180 min: after 180 min; for Formaldehyde GC Area, Initial: initial state

SMILES	Arsenic (As) Adsorption amount ([1]; content 0.5% aqueous solution)	Cadmium (Cd) Adsorption amount ([2]; content 0.5% aqueous solution)	Nickel (Ni) Adsorption amount ([3]; content 0.5% aqueous solution)	Total amount (Cu, Zn, Mn, Ni, Cd) [4]	Arsenic (As) Adsorption rate ([1]; content 0.5%)	Arsenic (As) Adsorption amount ([1]; content 1.0% aqueous solution)	Arsenic (As) Adsorption rate ([1]; content 1.0%)	Arsenic (As) Adsorption amount ([1]; content 2.0% aqueous solution)	Arsenic (As) Adsorption rate ([1]; content 2.0%)	Cadmium (Cd) Adsorption rate ([2]; content 0.5%)	Cadmium (Cd) Adsorption amount ([2]; content 1.0% aqueous solution)	Cadmium (Cd) Adsorption rate ([2]; content 1.0%)	Cadmium (Cd) Adsorption amount ([2]; content 2.0% aqueous solution)	Cadmium (Cd) Adsorption rate ([2]; content 2.0%)	Nickel (Ni) Adsorption rate ([3]; content 0.5%)	Nickel (Ni) Adsorption amount ([3]; content 1.0% aqueous solution)	Nickel (Ni) Adsorption rate ([3]; content 1.0%)	Nickel (Ni) Adsorption amount ([3]; content 2.0% aqueous solution)	Nickel (Ni) Adsorption rate ([3]; content 2.0%)	Test result (number of subject) (+) ([5]; content 0.1 wt %)	further results
O=C(O)CN(CCN(CC(=O)O)CC(=O)O)CC(=O)O [Control (EDTA), ethylenediaminetetraacetic acid, reference compound]	25 ppm	41 ppm	49 ppm	2.0 ppm																	
C1CNCCNCCNCCN1 [Cyclen, 1,4,7,10-tetraazacyclododecane]	42 ppm	69 ppm	91 ppm	≤5 ppm	168%	49 ppm	196%	51 ppm	204%	168%	74 ppm	180%	81 ppm	198%	186%	93 ppm	190%	98 ppm	200%	0	Test result (number of subject) (++) ([5]; content 0.1 wt %): 0; Test result (number of subject) (±) ([5]; content 0.1 wt %): 0; Test result (number of subject) (−) ([5]; content 0.1 wt %): 20; Degree of irritation ([5]; content 0.1 wt %): 0; Grade for skin irritation ([5]; content 0.1 wt %): I (Degree of irritation 0-0.1: Grade I (unstimulated)); Test result (number of subject) (+) ([5]; content 0.5 wt %): 0; Test result (number of subject) (++) ([5]; content 0.5 wt %): 0; Test result (number of subject) (±) ([5]; content 0.5 wt %): 0; Test result (number of subject) (−) ([5]; content 0.5 wt %): 20; Degree of irritation ([5]; content 0.5 wt %): 0; Grade for skin irritation ([5]; content 0.5 wt %): I (Degree of irritation 0-0.1: Grade I (unstimulated)); Test result (number of subject) (+) ([5]; content 1.0 wt %): 1; Test result (number of subject) (++) ([5]; content 1.0 wt %): 0; Test result (number of subject) (±) ([5]; content 1.0 wt %): 1; Test result (number of subject) (−) ([5]; content 1.0 wt %): 18; Degree of irritation ([5]; content 1.0 wt %): 0.15; Grade for skin irritation ([5]; content 1.0 wt %): II (Degree of irritation 0.11-0.3: Grade II (weakly stimulated)); Formaldehyde GC Area, 30 min [6]: 0.181 mAU*min; Formaldehyde GC Area, 180 min [6]: 0 mAU*min; Formaldehyde GC Area, Initial [6]: 0.305 mAU*min
O=C(O)CN(CCN(CCN(CC(=O)O)CC(=O)O)CC(=O)O)CCN(CC(=O)O)CC(=O)O [Embodiment 1, 3,6,9,12-tetrakis(carboxymethyl)-3,6,9,12-tetraazatetradecanedioic Acid]	48 ppm	74 ppm	91 ppm	≤5 ppm	192%	50 ppm	200%	53 ppm	212%	180%	79 ppm	193%	84 ppm	205%	186%	101 ppm	206%	112 ppm	229%	0	Test result (number of subject) (++) ([5]; content 0.1 wt %): 0; Test result (number of subject) (±) ([5]; content 0.1 wt %): 0; Test result (number of subject) (−) ([5]; content 0.1 wt %): 20; Degree of irritation ([5]; content 0.1 wt %): 0; Grade for skin irritation ([5]; content 0.1 wt %): I (Degree of irritation 0-0.1: Grade I (unstimulated)); Test result (number of subject) (+) ([5]; content 0.5 wt %): 0; Test result (number of subject) (++) ([5]; content 0.5 wt %): 0; Test result (number of subject) (±) ([5]; content 0.5 wt %): 1; Test result (number of subject) (−) ([5]; content 0.5 wt %): 19; Degree of irritation ([5]; content 0.5 wt %): 0.05; Grade for skin irritation ([5]; content 0.5 wt %): I (Degree of irritation 0-0.1: Grade I (unstimulated)); Test result (number of subject) (+) ([5]; content 1.0 wt %): 0; Test result (number of subject) (++) ([5]; content 1.0 wt %): 0; Test result (number of subject) (±) ([5]; content 1.0 wt %): 4; Test result (number of subject) (−) ([5]; content 1.0 wt %): 16; Degree of irritation ([5]; content 1.0 wt %): 0.20; Grade for skin irritation ([5]; content 1.0 wt %): II (Degree of irritation 0.11-0.3: Grade II (weakly stimulated)); Formaldehyde GC Area, 30 min [6]: 0.170 mAU*min; Formaldehyde GC Area, 180 min [6]: 0 mAU*min; Formaldehyde GC Area, Initial [6]: 0.305 mAU*min
O=C(O)c1ccc(N(CCN(CCN(c2ccc(C(=O)O)cc2)c2ccc(C(=O)O)cc2)c2ccc(C(=O)O)cc2)CCN(c2ccc(C(=O)O)cc2)c2ccc(C(=O)O)cc2)cc1 [Embodiment 2, 4,4′,4″,4′″-(((ethane-1,2-diylbis((4-carboxyphenyl)azanediyl))bis(ethane-2,1-diyl))bis(azanetriyl))tetrabenzoic Acid]	48 ppm	75 ppm	94 ppm	≤5 ppm	192%	49 ppm	196%	53 ppm	212%	183%	86 ppm	210%	88 ppm	215%	192%	96 ppm	196%	103 ppm	210%	0	Test result (number of subject) (++) ([5]; content 0.1 wt %): 0; Test result (number of subject) (±) ([5]; content 0.1 wt %): 0; Test result (number of subject) (−) ([5]; content 0.1 wt %): 20; Degree of irritation ([5]; content 0.1 wt %): 0; Grade for skin irritation ([5]; content 0.1 wt %): I (Degree of irritation 0-0.1: Grade I (unstimulated)); Test result (number of subject) (+) ([5]; content 0.5 wt %): 0; Test result (number of subject) (++) ([5]; content 0.5 wt %): 0; Test result (number of subject) (±) ([5]; content 0.5 wt %): 0; Test result (number of subject) (−) ([5]; content 0.5 wt %): 20; Degree of irritation ([5]; content 0.5 wt %): 0; Grade for skin irritation ([5]; content 0.5 wt %): I (Degree of irritation 0-0.1: Grade I (unstimulated)); Test result (number of subject) (+) ([5]; content 1.0 wt %): 0; Test result (number of subject) (++) ([5]; content 1.0 wt %): 0; Test result (number of subject) (±) ([5]; content 1.0 wt %): 1; Test result (number of subject) (−) ([5]; content 1.0 wt %): 19; Degree of irritation ([5]; content 1.0 wt %): 0.05; Grade for skin irritation ([5]; content 1.0 wt %): I (Degree of irritation 0-0.1: Grade I (unstimulated)); Formaldehyde GC Area, 30 min [6]: 0.168 mAU*min; Formaldehyde GC Area, 180 min [6]: 0 mAU*min; Formaldehyde GC Area, Initial [6]: 0.305 mAU*min

— patent publication US20210207064A1, “COMPOUND FOR RESTORING CONTAMINATED SOIL OR CONTAMINATED WATER” (FNG RESEARCH CO., LTD., priority 2018, published 2021)
